Assay results reported in EP0353754A2, “Radioactively marked benzodiazepin derivates” (F. HOFFMANN-LA ROCHE AG, priority 1988, dated 1990).

Test: Organ distribution of injected radioactivity in rats after I.V. injection
Format: in vivo, Ratten (weiblich, Wistar, spf)
Details: Ratte
Procedure: Es werden je 3 Ratten (weiblich, Wistar, spf) zu sieben verschiedenen Zeitpunkten (2′, 10′, 20′, 40′, 1h, 6h, 15h) gemessen. Das Gewicht der Tiere lag zwischen 113 und 144 g. Die Fütterung erfolgte ad libitum. Die I.V. injizierten Dosen variierten von 184 bis 355 µCi in jeweils 0,2 ml.

## CCOC(=O)c1ncn2c1CN(C)C(=O)c1c([123I])cccc1-2 [Aethyl-7-¹²³Jod-5,6-dihydro-5-methyl-6-oxo-4H-imidazo[1,5-a][1,4]benzodiazepin-3-carboxylat]
Blase, 2′
  Prozent der injizierten Aktivität in den entsprechend Organen: 0,03 Prozent der injizierten Aktivität
Blase, 10′
  Prozent der injizierten Aktivität in den entsprechend Organen: 0,06 Prozent der injizierten Aktivität
Blase, 20′
  Prozent der injizierten Aktivität in den entsprechend Organen: 0,03 Prozent der injizierten Aktivität
Blase, 40′
  Prozent der injizierten Aktivität in den entsprechend Organen: 0,01 Prozent der injizierten Aktivität
Blase, 60′
  Prozent der injizierten Aktivität in den entsprechend Organen: 0,03 Prozent der injizierten Aktivität
Blase, 6h
  Prozent der injizierten Aktivität in den entsprechend Organen: 0,09 Prozent der injizierten Aktivität
Blase, 15h
  Prozent der injizierten Aktivität in den entsprechend Organen: 0,0022 Prozent der injizierten Aktivität
Darm, 2′
  Prozent der injizierten Aktivität in den entsprechend Organen: 9,28 Prozent der injizierten Aktivität
Darm, 10′
  Prozent der injizierten Aktivität in den entsprechend Organen: 12,70 Prozent der injizierten Aktivität
Darm, 20′
  Prozent der injizierten Aktivität in den entsprechend Organen: 22,53 Prozent der injizierten Aktivität
Darm, 40′
  Prozent der injizierten Aktivität in den entsprechend Organen: 25,54 Prozent der injizierten Aktivität
Darm, 60′
  Prozent der injizierten Aktivität in den entsprechend Organen: 28,48 Prozent der injizierten Aktivität
Darm, 6h
  Prozent der injizierten Aktivität in den entsprechend Organen: 19,50 Prozent der injizierten Aktivität
Darm, 15h
  Prozent der injizierten Aktivität in den entsprechend Organen: 1,012 Prozent der injizierten Aktivität
Femur, 2′
  Prozent der injizierten Aktivität in den entsprechend Organen: 0,39 Prozent der injizierten Aktivität
Femur, 10′
  Prozent der injizierten Aktivität in den entsprechend Organen: 0,25 Prozent der injizierten Aktivität
Femur, 20′
  Prozent der injizierten Aktivität in den entsprechend Organen: 0,14 Prozent der injizierten Aktivität
Femur, 40′
  Prozent der injizierten Aktivität in den entsprechend Organen: 0,06 Prozent der injizierten Aktivität
Femur, 60′
  Prozent der injizierten Aktivität in den entsprechend Organen: 0,04 Prozent der injizierten Aktivität
Femur, 6h
  Prozent der injizierten Aktivität in den entsprechend Organen: 0,01 Prozent der injizierten Aktivität
Femur, 15h
  Prozent der injizierten Aktivität in den entsprechend Organen: 0,004 Prozent der injizierten Aktivität
Herz, 2′
  Prozent der injizierten Aktivität in den entsprechend Organen: 0,58 Prozent der injizierten Aktivität
Herz, 10′
  Prozent der injizierten Aktivität in den entsprechend Organen: 0,37 Prozent der injizierten Aktivität
Herz, 20′
  Prozent der injizierten Aktivität in den entsprechend Organen: 0,17 Prozent der injizierten Aktivität
Herz, 40′
  Prozent der injizierten Aktivität in den entsprechend Organen: 0,06 Prozent der injizierten Aktivität
Herz, 60′
  Prozent der injizierten Aktivität in den entsprechend Organen: 0,03 Prozent der injizierten Aktivität
Herz, 6h
  Prozent der injizierten Aktivität in den entsprechend Organen: 0,009 Prozent der injizierten Aktivität
Herz, 15h
  Prozent der injizierten Aktivität in den entsprechend Organen: 0,0035 Prozent der injizierten Aktivität
Hirn, 2′
  Prozent der injizierten Aktivität in den entsprechend Organen: 3,11 Prozent der injizierten Aktivität
Hirn, 10′
  Prozent der injizierten Aktivität in den entsprechend Organen: 5,38 Prozent der injizierten Aktivität
Hirn, 20′
  Prozent der injizierten Aktivität in den entsprechend Organen: 4,20 Prozent der injizierten Aktivität
Hirn, 40′
  Prozent der injizierten Aktivität in den entsprechend Organen: 4,02 Prozent der injizierten Aktivität
Hirn, 60′
  Prozent der injizierten Aktivität in den entsprechend Organen: 2,42 Prozent der injizierten Aktivität
Hirn, 6h
  Prozent der injizierten Aktivität in den entsprechend Organen: 0,08 Prozent der injizierten Aktivität
Hirn, 15h
  Prozent der injizierten Aktivität in den entsprechend Organen: 0,0015 Prozent der injizierten Aktivität
Kot + Urin, 2′
  Prozent der injizierten Aktivität in den entsprechend Organen: 0,05 Prozent der injizierten Aktivität
Kot + Urin, 10′
  Prozent der injizierten Aktivität in den entsprechend Organen: 6,17 Prozent der injizierten Aktivität
Kot + Urin, 20′
  Prozent der injizierten Aktivität in den entsprechend Organen: 19,39 Prozent der injizierten Aktivität
Kot + Urin, 40′
  Prozent der injizierten Aktivität in den entsprechend Organen: 48,72 Prozent der injizierten Aktivität
Kot + Urin, 60′
  Prozent der injizierten Aktivität in den entsprechend Organen: 51,71 Prozent der injizierten Aktivität
Kot + Urin, 6h
  Prozent der injizierten Aktivität in den entsprechend Organen: 48,81 Prozent der injizierten Aktivität
Kot + Urin, 15h
  Prozent der injizierten Aktivität in den entsprechend Organen: 42,69 Prozent der injizierten Aktivität
Leber, 2′
  Prozent der injizierten Aktivität in den entsprechend Organen: 16,90 Prozent der injizierten Aktivität
Leber, 10′
  Prozent der injizierten Aktivität in den entsprechend Organen: 34,37 Prozent der injizierten Aktivität
Leber, 20′
  Prozent der injizierten Aktivität in den entsprechend Organen: 17,61 Prozent der injizierten Aktivität
Leber, 40′
  Prozent der injizierten Aktivität in den entsprechend Organen: 3,90 Prozent der injizierten Aktivität
Leber, 60′
  Prozent der injizierten Aktivität in den entsprechend Organen: 1,29 Prozent der injizierten Aktivität
Leber, 6h
  Prozent der injizierten Aktivität in den entsprechend Organen: 0,15 Prozent der injizierten Aktivität
Leber, 15h
  Prozent der injizierten Aktivität in den entsprechend Organen: 0,107 Prozent der injizierten Aktivität
Lunge, 2′
  Prozent der injizierten Aktivität in den entsprechend Organen: 1,04 Prozent der injizierten Aktivität
Lunge, 10′
  Prozent der injizierten Aktivität in den entsprechend Organen: 0,81 Prozent der injizierten Aktivität
Magen, 2′
  Prozent der injizierten Aktivität in den entsprechend Organen: 0,81 Prozent der injizierten Aktivität
Magen, 10′
  Prozent der injizierten Aktivität in den entsprechend Organen: 1,20 Prozent der injizierten Aktivität
Magen, 20′
  Prozent der injizierten Aktivität in den entsprechend Organen: 1,28 Prozent der injizierten Aktivität
Magen, 40′
  Prozent der injizierten Aktivität in den entsprechend Organen: 1,37 Prozent der injizierten Aktivität
Magen, 60′
  Prozent der injizierten Aktivität in den entsprechend Organen: 1,96 Prozent der injizierten Aktivität
Magen, 6h
  Prozent der injizierten Aktivität in den entsprechend Organen: 1,35 Prozent der injizierten Aktivität
Magen, 15h
  Prozent der injizierten Aktivität in den entsprechend Organen: 0,346 Prozent der injizierten Aktivität
Milz, 2′
  Prozent der injizierten Aktivität in den entsprechend Organen: 0,26 Prozent der injizierten Aktivität
Milz, 10′
  Prozent der injizierten Aktivität in den entsprechend Organen: 0,21 Prozent der injizierten Aktivität
Milz, 20′
  Prozent der injizierten Aktivität in den entsprechend Organen: 0,11 Prozent der injizierten Aktivität
Milz, 40′
  Prozent der injizierten Aktivität in den entsprechend Organen: 0,06 Prozent der injizierten Aktivität
Milz, 60′
  Prozent der injizierten Aktivität in den entsprechend Organen: 0,03 Prozent der injizierten Aktivität
Milz, 6h
  Prozent der injizierten Aktivität in den entsprechend Organen: 0,008 Prozent der injizierten Aktivität
Milz, 15h
  Prozent der injizierten Aktivität in den entsprechend Organen: 0,0035 Prozent der injizierten Aktivität
Nieren, 2′
  Prozent der injizierten Aktivität in den entsprechend Organen: 3,15 Prozent der injizierten Aktivität
Nieren, 10′
  Prozent der injizierten Aktivität in den entsprechend Organen: 7,48 Prozent der injizierten Aktivität
Nieren, 20′
  Prozent der injizierten Aktivität in den entsprechend Organen: 6,25 Prozent der injizierten Aktivität
Nieren, 40′
  Prozent der injizierten Aktivität in den entsprechend Organen: 1,53 Prozent der injizierten Aktivität
Nieren, 60′
  Prozent der injizierten Aktivität in den entsprechend Organen: 0,79 Prozent der injizierten Aktivität
Nieren, 6h
  Prozent der injizierten Aktivität in den entsprechend Organen: 0,04 Prozent der injizierten Aktivität
Nieren, 15h
  Prozent der injizierten Aktivität in den entsprechend Organen: 0,009 Prozent der injizierten Aktivität
Ovar, 2′
  Prozent der injizierten Aktivität in den entsprechend Organen: 0,09 Prozent der injizierten Aktivität
Ovar, 10′
  Prozent der injizierten Aktivität in den entsprechend Organen: 0,06 Prozent der injizierten Aktivität
Ovar, 20′
  Prozent der injizierten Aktivität in den entsprechend Organen: 0,05 Prozent der injizierten Aktivität
Ovar, 40′
  Prozent der injizierten Aktivität in den entsprechend Organen: 0,02 Prozent der injizierten Aktivität
Ovar, 60′
  Prozent der injizierten Aktivität in den entsprechend Organen: 0,02 Prozent der injizierten Aktivität
Ovar, 6h
  Prozent der injizierten Aktivität in den entsprechend Organen: 0,003 Prozent der injizierten Aktivität
Ovar, 15h
  Prozent der injizierten Aktivität in den entsprechend Organen: 0,0008 Prozent der injizierten Aktivität
Restkörper, 2′
  Prozent der injizierten Aktivität in den entsprechend Organen: 63,94 Prozent der injizierten Aktivität
Restkörper, 10′
  Prozent der injizierten Aktivität in den entsprechend Organen: 29,92 Prozent der injizierten Aktivität
Restkörper, 20′
  Prozent der injizierten Aktivität in den entsprechend Organen: 25,92 Prozent der injizierten Aktivität
Restkörper, 40′
  Prozent der injizierten Aktivität in den entsprechend Organen: 11,04 Prozent der injizierten Aktivität
Restkörper, 60′
  Prozent der injizierten Aktivität in den entsprechend Organen: 7,09 Prozent der injizierten Aktivität
Restkörper, 6h
  Prozent der injizierten Aktivität in den entsprechend Organen: 2,88 Prozent der injizierten Aktivität
Restkörper, 15h
  Prozent der injizierten Aktivität in den entsprechend Organen: 1,30 Prozent der injizierten Aktivität
Schilddrüse, 2′
  Prozent der injizierten Aktivität in den entsprechend Organen: 0,18 Prozent der injizierten Aktivität
Schilddrüse, 10′
  Prozent der injizierten Aktivität in den entsprechend Organen: 0,15 Prozent der injizierten Aktivität
Schilddrüse, 20′
  Prozent der injizierten Aktivität in den entsprechend Organen: 0,18 Prozent der injizierten Aktivität
Schilddrüse, 40′
  Prozent der injizierten Aktivität in den entsprechend Organen: 0,03 Prozent der injizierten Aktivität
Schilddrüse, 60′
  Prozent der injizierten Aktivität in den entsprechend Organen: 0,02 Prozent der injizierten Aktivität
Schilddrüse, 6h
  Prozent der injizierten Aktivität in den entsprechend Organen: 0,008 Prozent der injizierten Aktivität
Schilddrüse, 15h
  Prozent der injizierten Aktivität in den entsprechend Organen: 0,0015 Prozent der injizierten Aktivität
Totalkörper, 2′
  Prozent der injizierten Aktivität in den entsprechend Organen: 99,75 Prozent der injizierten Aktivität
Totalkörper, 10′
  Prozent der injizierten Aktivität in den entsprechend Organen: 92,96 Prozent der injizierten Aktivität
Totalkörper, 20′
  Prozent der injizierten Aktivität in den entsprechend Organen: 78,87 Prozent der injizierten Aktivität
Totalkörper, 40′
  Prozent der injizierten Aktivität in den entsprechend Organen: 47,80 Prozent der injizierten Aktivität
Totalkörper, 60′
  Prozent der injizierten Aktivität in den entsprechend Organen: 43,17 Prozent der injizierten Aktivität
Totalkörper, 6h
  Prozent der injizierten Aktivität in den entsprechend Organen: 24,16 Prozent der injizierten Aktivität
